Numbers after ± are expanded uncertainties.
Experiment: Solid-liquid equilibrium temperature
Settings: closed cylinder with variable piston

CCCCCCCCCCCCCCCC [hexadecane]
Crystal
Settings | Solid-liquid equilibrium temperature [K]
9210 kPa | 293.15 ± 0.3
50650 kPa | 303.15 ± 0.58
95560 kPa | 313.15 ± 0.9
143920 kPa | 323.15 ± 1.2
195740 kPa | 333.15 ± 1.5
251030 kPa | 343.15 ± 1.9

CCCCCCCCCCCCCCCCCC [octadecane]
Crystal
Settings | Solid-liquid equilibrium temperature [K]
8860 kPa | 303.15 ± 0.3
49600 kPa | 313.15 ± 0.57
94900 kPa | 323.15 ± 0.88
144780 kPa | 333.15 ± 1.2
199220 kPa | 343.15 ± 1.5
258230 kPa | 353.15 ± 1.8

CCCCCCCCCCCCC [tridecane]
Crystal 1
Settings | Solid-liquid equilibrium temperature [K]
100 kPa | 268.21 ± 0.24
133010 kPa | 293.15 ± 1
197120 kPa | 303.15 ± 1.2
265400 kPa | 313.15 ± 1.6
337830 kPa | 323.15 ± 1.9
414420 kPa | 333.15 ± 2.2
495170 kPa | 343.15 ± 2.5

Reference: the NIST ThermoML archive (doi:10.1016/j.fluid.2004.11.020)
